From patent US20160280651A1, “COMPOUNDS THAT INDUCE ABA RESPONSES” (THE REGENTS OF THE UNIVERSITY OF CALIFORNIA, priority 2013, published 2016)

Columns and labels:
Arabidopsis seeds = test: Arabidopsis germination inhibition analysis, Example 12; format: in vivo; settings: assessed after 3 days, dark
Description: To analyse the effect of compounds on inhibition of germination, Arabidopsis seeds after-ripened for about 4 weeks were surface-sterilized with a solution containing 5% NaClO and 0.05% Tween-20 for 10 minutes, and rinsed with water four times. Sterilized seeds were suspended with 0.1% agar and sowed on 0.8% solidified agar medium containing ½ Murashige and Skoog (MS) salts (Sigma-Aldrich) in the presence of the relevant treatment, stored at 4° C. for 4 days, and then transferred to 22° C. under the dark conditions. Germination was assessed after 3 days.

Chlamydomonas = test: Colony growth of Chlamydomonas with and without salinity and osmotic stress; format: in vivo
Description: FIG. 17A-FIG. 17D. The effect of ABA and its agonists in Physcomitrella patens and Chlamydomonas. Protonemal growth images (A) and quantitative analysis (B) of the effects of ABA and agonists on Phsycomitrella patens. Protonema were grown on 200 μM of specific test chemical for 10 days. […] Pyrabactin bleached protonema. (C) The expression of ABA-responsive genes of Physcomitrella patens. Protonema were treated with 200 μM chemical solutions for 3 h. (D) Colony growth of Chlamydomonas on the chemical with salinity stress and osmotic stress. There was no effect of ABA and LC66C6 on the Chlamydomonas growth with and without stresses.

[1] = test system: HAB1 with PYR/PYL receptors; test: Receptor-mediated PP2C inhibition assay with HAB1, Example 1; format: biochemical, Arabidopsis; settings: 10 μM; in the presence of all ABA receptors tested
Description: (§1) FIG. 2A-FIG. 2C. Novel ABA agonists inhibit PPC2 activity through multiple PYR/PYL. (A) Chemical structure of naturally occurring (+)-ABA and selected ABA agonists. (B) and (C) HAB1, ABU, and ABI2 PP2C enzyme activity based ABA-agonist assays for various receptors in the presence or absence of 10 μM each test chemical.
FIG. 3A-FIG. 3B. (A) Receptor-mediated dose-dependent inhibition of PP2C enzyme activity by ABA agonists and analogs. (B) Observed compound IC50 values in enzymatic HAB1 PP2C-based ABA-agonist assays.
FIG. 4A-FIG. 4B. Quinabactin activates multiple ABA receptors. (A) Chemical structures of ABA, pyrabactin and quinabactin. (B) Chemical-dependent inhibition of HAB1 by ABA receptors. IC50 values (nM) were determined as described in the methods using 50 nM HAB1, 50 nM and multiple concentrations of compounds; full dose response curves are provided as in FIG. 3. (nd) correspond to receptors that were not produced as active proteins. The phylogenetic tree is a Neighbor-Joining tree made using the JTT distance matrix in MEGA5 (Tamura K, et al. (2011) MEGA5: Molecular Evolutionary Genetics Analysis Using Maximum Likelihood, Evolutionary Distance, and Maximum Parsimony Methods. Molecular Biology and Evolution 28(10):2731-2739).
HAB1 and PYL proteins were expressed and purified as described previously (Park S Y, et al. (2009) Abscisic Acid Inhibits Type 2C Protein Phosphatases via the PYR/PYL Family of START Proteins. Science 324(5930):1068-1071), with minor modifications. To obtain GST-HAB1, -ABI1 and -ABI2 fusion proteins, the HAB1 cDNA was cloned into pGex-2T whereas ABI1 and ABI2 cDNAs were cloned into the vector pGex-4T-1. Expression was conducted in BL21[DE3]pLysS host cells. Transformed cells were pre-cultured overnight, transferred to LB medium and cultured at 30° C. to culture A600 of ˜0.5. The culture was then cooled on ice and MnCl2 added to 4 mM and IPTG added to 0.3 mM. After 16 hours incubation at 15° C., cells were harvested and recombinant proteins were purified on glutathione agarose as described previously (Park S Y, et al. (2009). To obtain 6×His-PYL receptor fusion proteins, receptor cDNAs for all 13 ABA receptors were cloned into the vector pET28 and expressed and purified as described previously (Mosquna A, et al. (2011) Potent and selective activation of abscisic acid receptors in vivo by mutational stabilization of their agonist-bound conformation. PNAS 108(51):20838-20843); this yielded soluble and functional protein (assessed using receptor-mediated PP2C inhibition assays) for all receptors except PYL7, PYL11 and PYL12. These three receptors were therefore alternatively expressed as maltose binding (MBP) fusion proteins using the vector pMAL-c; expression of these constructs was carried out in BL21 [DE3]pLysS host strain with the same induction conditions used for GST-HAB1. Recombinant MBP-PYL fusion proteins were purified from sonicated and cleared lysate using amylose resin (New England Biolab, Inc.) using the manufacturers purification instructions. This effort yielded an active MBP-PYL11 fusion protein, but failed for PYL7 and PYL12.
PP2C activity assays using recombinant receptors and PP2Cs were carried out as follows: Purified proteins were pre-incubated in 80 μl assay buffer containing 10 mM MnCl2, 3 μg bovine serum albumin and 0.1% 2-mercaptoethanol with ABA or ABA agonist for 30 minutes at 22° C. Reactions were started by adding 20 μL of a reaction solution containing 156 mM Tris-OAc, pH 7.9, 330 mM KOAc and 5 mM 4-methylumbelliferyl phosphate after which fluorescence measurements were immediately collected using an excitation filter 355 nm and an emission filter 460 nm on a Wallac plate reader. Reactions contained 50 nM PP2C and 100 nM PYR/PYL proteins, respectively.

[2] = test system: ABI2 with PYR/PYL receptors; test: Receptor-mediated PP2C inhibition assay with ABI2, Example 1; format: biochemical, Arabidopsis; settings: 10 μM; in the presence of all ABA receptors tested
Description: as §1
(§2) HAB1 and PYL proteins were expressed and purified as described previously (Park S Y, et al. (2009) Abscisic Acid Inhibits Type 2C Protein Phosphatases via the PYR/PYL Family of START Proteins. Science 324(5930):1068-1071), with minor modifications. To obtain GST-HAB1, -ABI1 and -ABI2 fusion proteins, the HAB1 cDNA was cloned into pGex-2T whereas ABI1 and ABI2 cDNAs were cloned into the vector pGex-4T-1. […] After 16 hours incubation at 15° C., cells were harvested and recombinant proteins were purified on glutathione agarose as described previously (Park S Y, et al. (2009). To obtain 6×His-PYL receptor fusion proteins, receptor cDNAs for all 13 ABA receptors were cloned into the vector pET28 and expressed and purified as described previously (Mosquna A, et al. (2011) Potent and selective activation of abscisic acid receptors in vivo by mutational stabilization of their agonist-bound conformation. PNAS 108(51):20838-20843); this yielded soluble and functional protein (assessed using receptor-mediated PP2C inhibition assays) for all receptors except PYL7, PYL11 and PYL12. […]

ABA-responsive genes = test: Quantitative RT-PCR of ABA-responsive genes in Arabidopsis; format: in vivo
Description: FIG. 9A-FIG. 9D. LC66C6 induces numerous ABA-responsive genes. […] Ten-day old seedlings were treated with carrier solvent (DMSO) or either 25 μM ABA, pyrabactin or LC66C6 for 8 hours. Total RNA was then prepared labeled and hybridized to ATH1 microarrays. Data plotted are log 2 transformed average expression values for ˜13K probes that were detectable across all experiments. Data shown are averages determined from triplicate biological replicates. (C) and (D) show the expression of a reporter gene in different plant tissues after treatment with vehicle (DMSO), pyrabactin, LC66C6, or (+)-ABA.
FIG. 10. ABA-responsive gene expression in PYR/PYL single mutants. The response of the ABA-responsive MAPKKK18, RD29A, and RD29B mRNAs to LC66C6, ABA and pyrabactin were characterized in the Col and Ler ecotypes and the pyr1, pyl1, ply2, pyl3 and pyl4 single mutant genotypes.
FIG. 11. LC66C6 induces ABA-responsive gene expression in wild-type plants, abi1-1 and PYR/PYL quadruple mutants.
Total RNA was isolated using Plant RNA purification reagent (Invitrogen, USA) according to the manufacturer's instructions. cDNA was synthesized from 1 μg of total RNA using the QantiTec reverse transcription kit (Qiagen, USA). Real-time PCR using Maxima® SYBR Green/Fluorescein qPCR Master Mix (Fermentas) was performed with the iQ5 real-time PCR detection system (Bio-Rad, Hercules, Calif.). The relative amounts of target mRNAs were determined using the relative standard curve method and were normalized by relative amount of internal control mRNA. Biological triplicate experiments were performed.

[3] = test system: ABI1 with PYR/PYL receptors; test: Receptor-mediated PP2C inhibition assay with ABI1, Example 1; format: biochemical, Arabidopsis; settings: 10 μM; in the presence of all ABA receptors tested
Description: as §1, §2

SMILES	Percentage germination of Arabidopsis seeds (Arabidopsis seeds; 0.2 uM) [%]	Percentage germination of Arabidopsis seeds (Arabidopsis seeds; 1 uM) [%]	Percentage germination of Arabidopsis seeds (Arabidopsis seeds; 5 uM) [%]	Percentage germination of Arabidopsis seeds (Arabidopsis seeds; 25 uM) [%]	Growth of Chlamydomonas (Chlamydomonas)	Inhibition of PP2C enzyme activity of HAB1 [1] [%]	Inhibition of PP2C enzyme activity of ABI2 [2] [%]	Induction of MAPKKK18, RD29A and RD29B mRNAs (ABA-responsive genes; Col and Ler ecotypes and pyr1, pyl1, pyl2, pyl3, pyl4 single mutants)	Expression of ABF3, GBF3, NCED3 and RD29A (ABA-responsive genes; Col wild-type plants)	Inhibition of PP2C enzyme activity of ABI1 [3] [%]
C=CCN1C(=O)CCc2cc(NS(=O)(=O)Cc3ccc(OC(F)(F)F)cc3)cc(C)c21	100	100	30	0						
C#CCN1C(=O)CCc2cc(NS(=O)(=O)Cc3ccc(OC(F)(F)F)cc3)cc(C)c21	100	100	68	0						
C=CCN1C(=O)CCc2cc(NS(=O)(=O)Cc3ccc(Br)cc3)cc(C)c21	100	100	96	0						
C=CCN1C(=O)CCc2cc(NS(=O)(=O)Cc3ccc(C)cc3)cc(C)c21	100	100	100	0						
C=CCN1C(=O)CCc2cc(NS(=O)(=O)Cc3ccc(Cl)cc3)cc(C)c21	100	100	100	0						
C#CCN1C(=O)CCc2cc(NS(=O)(=O)Cc3ccc(Br)cc3)cc(C)c21	100	100	100	0						
C#CCN1C(=O)CCc2cc(NS(=O)(=O)Cc3ccc(C)cc3)cc(C)c21	100	100	100	0						
C=CCN1C(=O)C(C)Cc2cc(NS(=O)(=O)Cc3ccc(OC(F)(F)F)cc3)ccc21 (stereo not shown)	100	100	100	14						
C=CCN1C(=O)C(C)Cc2cc(NS(=O)(=O)Cc3ccc(C)cc3)ccc21 (stereo not shown)	99	100	100	71						
CC1=CC(=O)CC(C)(C)C1(O)/C=C/C(C)=C\C(=O)O (single isomer, unassigned; (+)) [(+)-ABA, Abscisic acid, reference compound]					no effect	> 90	> 90	induced	induced expression of ABF3, GBF3, NCED3, and RD29A in a dose dependent manner	> 90
CCCN1C(=O)CCc2cc(NS(=O)(=O)Cc3ccc(C)cc3)ccc21 [drawing 36]	100	46	0	0						
